According to PubChem BioAssay (NCI):
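Cultured in 96-well plates, cells were exposed to test compound for 48 hours across five concentrations. Abbreviation: GI50, concentration required for 50% inhibition of growth. The concentration for full growth arrest is given as TGI.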

Experiments:
Assay in all cases: DTP human tumour cell line panel, 48 h
786-0 renal = system: 786-0 renal
HL-60(TB) leukemia = system: HL-60(TB) leukemia
KM12 colon = system: KM12 colon
NCI-H460 lung = system: NCI-H460 lung
OVCAR-3 ovarian = system: OVCAR-3 ovarian
RPMI-8226 leukemia = system: RPMI-8226 leukemia
RXF 393 renal = system: RXF 393 renal
IGROV1 ovarian = system: IGROV1 ovarian
HOP-62 NSCLC = system: HOP-62 NSCLC
T-47D breast = system: T-47D breast

| SMILES | TGI (786-0 renal) [µM] | TGI (HL-60(TB) leukemia) [µM] | TGI (KM12 colon) [µM] | TGI (NCI-H460 lung) [µM] | TGI (OVCAR-3 ovarian) [µM] | TGI (RPMI-8226 leukemia) [µM] | TGI (RXF 393 renal) [µM] | TGI (IGROV1 ovarian) [µM] | TGI (HOP-62 NSCLC) [µM] | GI50 (786-0 renal) [µM] | GI50 (HOP-62 NSCLC) [µM] | GI50 (IGROV1 ovarian) [µM] | GI50 (KM12 colon) [µM] | GI50 (OVCAR-3 ovarian) [µM] | GI50 (RXF 393 renal) [µM] | GI50 (T-47D breast) [µM] | TGI (T-47D breast) [µM] | GI50 (NCI-H460 lung) [µM] | GI50 (RPMI-8226 leukemia) [µM] |
| --- | --- | --- | --- | --- | --- | --- | --- | --- | --- | --- | --- | --- | --- | --- | --- | --- | --- | --- | --- |
| Clc1cc(Cl)cc(C2SCc3nc4ccccc4n32)c1 (stereo not drawn) | 32.4 | 53.4 | 37.3 | 29.3 | 38.3 | 98.4 | 28.2 | – | – | – | – | – | – | – | – | – | – | – | – |
| O=C1C2c3[nH]c4ccccc4c3C3CCC(c4ccccc4)CC3C2C(=O)N1c1ccccc1 (stereo not drawn) | > 100 | 71.1 | > 100 | > 100 | > 100 | > 100 | > 100 | > 100 | – | – | – | – | – | – | – | – | – | – | – |
| CCCCCCCCCCCCCCCCCc1cc(Cl)nc(Cl)n1 | > 100 | > 100 | > 100 | > 100 | > 100 | > 100 | > 100 | > 100 | > 100 | – | – | – | – | – | – | – | – | – | – |
| CCCCN1C(=O)C2c3[nH]c4ccccc4c3C3CCCCC3C2C1=O (mixture of isomers) | 20.2 | 29.1 | – | 31.2 | 28.9 | – | – | 75.9 | 19.4 | – | – | – | – | – | – | – | – | – | – |
| O=C(NCCN1CCOCC1)Nc1nc2ccc(Sc3nnc4ccc(-c5ccc(F)cc5)nn34)cc2s1 | 5.39 | – | > 100 | > 100 | > 100 | – | – | > 100 | > 100 | 1.59 | > 20.8 | > 100 | 0.571 | > 100 | 0.522 | > 21.2 | > 59.6 | – | – |
| N#CC1=C(c2ccccc2)NN(Cc2ccccc2)C(c2ccc(Cl)cc2)CC1=O (stereo not drawn) | 98.4 | 84.6 | 82.1 | 52.9 | – | 64.8 | 98.2 | – | – | – | – | – | – | – | – | – | – | – | – |
| O=c1/c(=C/c2ccccc2O)sc2nc3ccccc3n12 | > 100 | 26.8 | – | > 100 | 98.7 | 64.9 | 57.9 | 85.1 | – | – | – | – | – | – | – | – | – | – | – |
| C=CCNC(=O)ON1C(=O)CCC1=O | > 100 | > 100 | > 100 | > 100 | > 100 | > 100 | > 100 | > 100 | > 100 | – | – | – | – | – | – | – | – | – | – |
| CN(C(=N)c1ccccc1)c1ccccc1 | > 100 | > 100 | > 100 | – | > 100 | > 100 | – | > 100 | – | – | – | – | – | – | – | – | – | – | – |
| CC(=O)CC(=O)ON(C)C(C)=O | > 100 | > 100 | > 100 | > 100 | > 100 | > 100 | > 100 | > 100 | > 100 | – | – | – | – | – | – | – | – | – | – |
| C/C(=N\NC(=O)C[n+]1ccccc1)c1sc(-c2nc(C)c(/C(C)=N/NC(=O)C[n+]3ccccc3)s2)nc1C | > 100 | – | > 100 | > 100 | > 100 | > 100 | > 100 | > 100 | > 100 | – | – | – | – | – | – | – | – | – | – |
| Cc1cc(NCCCNc2ccnc3cc(Cl)ccc23)nc(Nc2ccc(C(=O)N3CCCCC3)cc2)n1 | 3.72 | – | 11.6 | 7.63 | 5.91 | 5.66 | 3.67 | 12.7 | 7.43 | 1.83 | 2.4 | 3.09 | 2.96 | 2.36 | 1.8 | 2.15 | 6.2 | 2.7 | 2.27 |
| CCOC(=O)NC(=O)c1cn(CC(=O)NCC(=O)NCC(=O)N2CCN(CCn3c(C)nc(C(N)=O)c3N)CC2)c(=O)[nH]c1=O | > 100 | > 100 | > 100 | > 100 | – | – | – | > 100 | > 100 | – | – | – | – | – | – | – | – | – | – |
| NC(N)=NS(=O)(=O)c1ccc(NC(=O)c2cccn3c(=O)c4ccccc4nc23)cc1 | > 100 | 44.9 | 36 | > 100 | > 100 | 65.1 | > 100 | > 100 | > 100 | – | – | – | – | – | – | – | – | – | – |
| Clc1cc2nc[nH]c2cc1Cl | > 100 | > 100 | > 100 | > 100 | > 100 | > 100 | – | > 100 | > 100 | – | – | – | – | – | – | – | – | – | – |
| Cc1cc(Cl)ccc1NC(=O)C1C(=O)C(=O)N(c2ccc(Cl)cc2C)C1=O (stereo not drawn) | > 100 | > 100 | – | – | > 100 | > 100 | – | > 100 | > 100 | – | – | – | – | – | – | – | – | – | – |
| CCOc1cccc2sc(N)nc12 | > 100 | > 100 | > 100 | > 100 | > 100 | > 100 | > 100 | > 100 | > 100 | – | – | – | – | – | – | – | – | – | – |
| COC(=O)c1ccc(CS(=O)(=O)c2ccccc2)cc1 | > 100 | > 100 | > 100 | > 100 | > 100 | > 100 | > 100 | > 100 | > 100 | – | – | – | – | – | – | – | – | – | – |
| COc1cccc(-c2cc(=O)c3cc(C)c(C)c(C(=O)O)c3o2)c1 | > 100 | > 100 | > 100 | > 100 | > 100 | > 100 | – | > 100 | > 100 | – | – | – | – | – | – | – | – | – | – |
| C[C@@]1([C@H](OC(=O)c2cccc3ccccc23)C(N)=O)CO1 | 14.6 | – | 10.8 | > 30.1 | > 100 | 9.04 | > 21.3 | 3.75 | 7.29 | 1.84 | 0.978 | 0.779 | 2.09 | 21.6 | 4.91 | 5.31 | 24.8 | 5.5 | 0.668 |
| CC(C)COC(=O)N1N=NC2C3CC(=O)C(O3)C21 (stereo not drawn) | > 100 | – | > 100 | > 100 | > 100 | > 100 | > 100 | > 100 | > 100 | – | – | – | – | – | – | – | – | – | – |
| CC(=O)O[C@H]1CC[C@@]2(C)C(=CC[C@@H]3C2CC[C@]2(C)C(=O)NC(=O)CC32)C1 (stereo partly drawn) | > 100 | > 100 | > 100 | > 100 | – | – | 84.1 | > 100 | > 100 | – | – | – | – | – | – | – | – | – | – |
| O=C(/C=C/c1ccc[nH]1)c1ccccc1 | > 100 | > 100 | > 100 | > 100 | > 100 | > 100 | > 100 | – | > 100 | – | – | – | – | – | – | – | – | – | – |
